Measured values from ChEMBL document CHEMBL5375996, “Discovery of Orally Available and Brain Penetrant AEP Inhibitors” (J Med Chem, 2023).

Assays:
physchem = conditions: octanol/water
in vitro = conditions: PAMPA

SMILES	logD (physchem)	Papp (in vitro)
C#C[C@H](CC(N)=O)NC(=O)[C@@H]1CCCN1C(=O)[C@]1(c2ccc(OC(F)(F)F)cc2)C[C@@H](F)C1	2.1	–
N#C[C@H](CC(N)=O)NC(=O)[C@@H]1CCCN1C(=O)C1(c2ccc(F)cc2)CC1	0.5	2.9 ×10⁻⁶ cm/s
N#C[C@H](CC(N)=O)NC(=O)[C@@H]1CCCN1C(=O)Cc1ccccc1	–	2.7 ×10⁻⁶ cm/s
C#C[C@H](CC(N)=O)NC(=O)[C@@H]1C[C@@H](C)CN1C(=O)C1(c2ccc(OC(F)(F)F)cc2)CC1	2.2	2.8 ×10⁻⁶ cm/s
C#C[C@H](CC(N)=O)NC(=O)[C@@H]1C[C@H](C)CN1C(=O)C1(c2ccc(OC(F)(F)F)cc2)CC1	2.3	1.5 ×10⁻⁶ cm/s
NC(=O)CN(NC(=O)[C@@H]1CCCN1C(=O)C1(c2ccc(OC(F)(F)F)cc2)CC1)C(=O)CCl	1.9	–
C#C[C@H](CC(N)=O)NC(=O)[C@@H]1CCCN1C(=O)[C@]1(c2ccc(OC(F)(F)F)cc2)C[C@H](F)C1	1.7	–
